The record followed here is US20020068759A1, “Medicament” (SmithKline Beecham plc, priority 1990, published 2002).

Counter-ions that a name gives are not always drawn.

As a reminder, the melting point is the temperature, or range, at which the solid turns liquid. In turn, `CCCCc1nc2cc(Br)cc(C(=O)O)c2n1Cc1ccccc1Cl` [Example 4, 5-Bromo-2-n-butyl-1-(2-chlorophenyl)methyl-1H-benzimidazole-7-carboxylic Acid] came in with a melting point of 254 to 255 °C.
As for `CCCSc1ncc(C[C@H](NC(=O)CCC)C(=O)O)n1Cc1ccccc1Cl` [Example 1, 3-[(2-Chlorophenyl)methyl]-2-propylthio-N-butyrylhistidine], the melting point is 178 to 181 °C.
The result for `CCCCc1ncc(CC(Cc2ccccc2)C(=O)O)n1Cc1ccccc1Cl` (stereo not drawn) (as salt: hydrochloride) [Example 2, 3-[2-n-Butyl-1-{(2-chlorophenyl)methyl}-1H-imidazol-5-yl]-2-benzylpropanoic Acid] reads 118 to 120 °C.
